Converted amounts (≈) assume the structure as drawn.
Assays:
[1] = ABTS radical scavenging assay; settings: 5 min, 734 nm
Description: Three in vitro antioxidant assays, namely, 2,2′-azinobis-(3-ethylbenzothiazoline-6-sulfonic acid (ABTS), 2,2′-diphenyl-1-picrylhydrazyl (DPPH), and ferric ion reducing antioxidant power (FRAP), were used to determine the antioxidant activity according to methods previously reported. Ascorbic acid (0 to 200 μg/mL) was used as positive control in these experiments, and Formula (1) below allowed us to evaluate the percentage of radical scavenging capacity. The inhibitory concentration (IC50) values were evaluated by plotting a nonlinear graph of percentage radical scavenging capacity versus logarithm of tested concentrations. Scavenging capacity (%) = [(A0 − A1)/A0] × 100(1) where A0 is absorbance of negative control, and A1 is absorbance of extract with ABTS^•+ radical cation.
Specifically, 2.45 mM of potassium persulfate and 7 mM of ABTS solution were dissolved in methanol and combined to create the ABTS^•+ radical cation, which was stored at 25 °C for a minimum of 16 h. At 734 nm, the absorbance of the generated ABTS^•+ was measured using a SpectraMax iD3 multi-mode microplate reader (Molecular Devices, San Jose, CA, USA) and calibrated to 0.70 ± 0.02. After carefully diluting 40 μL of EMME (1 mg/mL) with methanol and adding 160 μL of (ABTS^•+) radical cation, the 96-well microtiter plate was left to sit at 25 °C in the dark for five minutes. Using a SpectraMax iD3 multi-mode microplate reader, the absorbance values were measured at 734 nm against the blank (extract plus methanol without ABTS^•+). A nonlinear curve representing the percentage of ABTS^•+ scavenging capacity vs. a logarithm of tested concentrations was then plotted to determine the inhibitory concentration (IC50) values.
(§1) The IC50 values were calculated for each biological experiment using the nonlinear regression curve of the % inhibitory activity versus the logarithm (log10) of the various tested concentrations using GraphPad Prism 6.0 software (GraphPad Software, Inc., San Diego, CA, USA). The data are shown as mean ⁱ SEM (standard error of the mean) values, and all biological experiments were conducted in triplicate (n = 3). The statistical analysis was conducted using GraphPad Prism 6.0 software (GraphPad Software, Inc., San Diego, CA, USA). One-way analysis of variance (ANOVA) was used to compare the data across the tested samples and/or controls, and Student–Newman–Keuls or Dunnett’s tests were then performed. A p-value of less than 0.05 indicated a significant difference in the results.

soybeans 15-LOX = molecular target: T1, soybeans 15-LOX (Glycine max, UniProt P08170); assay: 15-lipoxygenase enzyme inhibitory assay (FOX); format: biochemical, soybean; settings: linoleic acid substrate, FOX reagent, 560 nm; read-out: IC50 15-LOX (converted)
T1 construct: purchased Merck, Darmstadt, Germany
T1 sequence (P08170 1-839): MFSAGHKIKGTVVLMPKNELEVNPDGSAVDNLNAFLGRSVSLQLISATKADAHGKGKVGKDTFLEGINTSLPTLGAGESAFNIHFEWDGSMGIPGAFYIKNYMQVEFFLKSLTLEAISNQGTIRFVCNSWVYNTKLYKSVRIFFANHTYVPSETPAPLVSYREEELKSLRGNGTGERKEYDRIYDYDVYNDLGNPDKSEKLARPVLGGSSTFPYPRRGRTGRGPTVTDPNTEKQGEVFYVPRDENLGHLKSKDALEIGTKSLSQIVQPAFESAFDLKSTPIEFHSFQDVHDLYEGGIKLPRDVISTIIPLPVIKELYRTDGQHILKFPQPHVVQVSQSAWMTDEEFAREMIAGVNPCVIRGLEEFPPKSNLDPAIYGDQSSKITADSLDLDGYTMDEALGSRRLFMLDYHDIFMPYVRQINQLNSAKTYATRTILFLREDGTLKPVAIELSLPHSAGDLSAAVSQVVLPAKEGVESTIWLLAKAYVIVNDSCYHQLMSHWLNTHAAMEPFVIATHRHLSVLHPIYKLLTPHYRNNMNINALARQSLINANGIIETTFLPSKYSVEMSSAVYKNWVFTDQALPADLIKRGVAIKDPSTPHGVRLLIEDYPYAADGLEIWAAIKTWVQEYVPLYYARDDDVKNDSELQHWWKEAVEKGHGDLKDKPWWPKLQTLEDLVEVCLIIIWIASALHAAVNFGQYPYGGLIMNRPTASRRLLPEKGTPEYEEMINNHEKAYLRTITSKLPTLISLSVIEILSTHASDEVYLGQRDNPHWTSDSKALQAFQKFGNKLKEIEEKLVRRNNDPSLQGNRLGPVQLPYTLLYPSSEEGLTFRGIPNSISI
Description: The method developed by Pinto et al. was used to determine the effect of the tested samples on 15-LOX inhibitory activity, with slight modifications to the 96-well microtitre plate format. Using 20 µL of tested samples at varying concentrations (3.90 to 500 µg/mL), the soybeans 15-LOX (Merck, Darmstadt, Germany) (40 µL, 200 UI/mL) were incubated at 25 °C for 5 min. The plate was then incubated at 25 °C for 20 min in the dark; after, 40 µL of linoleic acid (final concentration, 140 μM) produced in Tris-HCl buffer (50 mM, pH 7.4) was added. A total of 100 µL of the FOX reagent—sulfuric acid (30 mM), xylenol orange (100 μM), and ferrous II) sulfate (100 μM) mixed in methanol/water (9:1)—was added to terminate the test. A SpectraMax iD3 multi-mode microplate reader (Molecular Devices, San Jose, CA, USA) was used to measure the absorbance at 560 nm following 30 min of incubation at 25 °C in the dark. Gallic acid (0.78 to 100 µg/mL) was employed as the usual inhibitor of 15-LOX, while DMSO at 5% (v/v) served as the negative control. With the exception of adding the substrate after the FOX reagent, the blanks were prepared exactly like the tested samples. Formula (2) below was used to compute the 15-LOX inhibitory activity. 15 LOX inhibitory activity (%) = 100 − [(A0 − A1) − (A2 − A1)] × 100(2) where A0 is absorbance of test samples, A1 is absorbance of blank, and A2 is absorbance of negative control (DMSO 5%).
as §1

SMILES | IC50 ABTS [1] | IC50 (soybeans 15-LOX) | IC50 ABTS ([1]; listed as genistin)
CCCCCCCCCCCCCCCC [Compound 1, n-hexadecane] | >100 µg/mL | > 883 µM | 
CCCCCCCCCCCCCCCCCCCCCCCO [Compound 3, tricosan-1-ol] | >100 µg/mL | > 587 µM | 
O=c1c2c(O)cc(O)cc2oc2oc3cc(O)ccc3c12 [Compound 4, lupinalbin A] | >100 µg/mL | > 704 µM | 
CC[C@H](/C=C/[C@@H](C)[C@H]1CC[C@H]2[C@@H]3CC=C4C[C@@H](O[C@@H]5O[C@H](CO)[C@@H](O)[C@H](O)[C@H]5O)CC[C@]4(C)[C@H]3CC[C@]12C)C(C)C [Compound 7, stigmasterol glucoside] | >100 µg/mL | > 348 µM | 

Next, values leading:

IC50 ABTS [1] | IC50 (soybeans 15-LOX) | IC50 ABTS ([1]; listed as genistin) | SMILES
91.02 ± 1.33 µg/mL (≈ 211 µM) | 414 µM | 99.89 µg/mL (≈ 231 µM) | O=c1c(-c2ccc(O)cc2)coc2cc(O[C@@H]3O[C@H](CO)[C@@H](O)[C@H](O)[C@H]3O)cc(O)c12 [Compound 5, genistin]
>100 µg/mL | > 1030 µM |  | CO[C@H]1[C@H](O)[C@@H](O)[C@@H](O)[C@H](O)[C@@H]1O [Compound 6, D-pinitol]

Source: article PMC11678782, “The Antioxidant and Anti-Inflammatory Activities of the Methanolic Extract, Fractions, and Isolated Compounds from Eriosema montanum Baker f. (Fabaceae)” (Molecules, 2024)
